Where “and” joins values, the source holds several entries; their conditions need not be identical. Equal values may be shown once. Inconclusive results and toxic doses are left out.
Tested on: BDF1 mice, P388 leukemia ip, median survival T/C
Assay: NCI In Vivo Anticancer Drug Screen. Data for tumor model P388 Leukemia (intraperitoneal) in B6D2F1 (BDF1) mice
Conditions: endpoint: median survival time, higher = longer survival
In short: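 Reported as T/C, where T is the survival measurement in dosed animals and C the same measurement in vehicle controls.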

[1] = dose: 100.0 mg/kg/injection, schedule: Q01DX009 (ip), vehicle: saline
[2] = dose: 100.0 mg/kg/injection, schedule: Q04DX003 (ip), vehicle: saline
[3] = dose: 200.0 mg/kg/injection, schedule: Q01DX009 (ip), vehicle: saline
[4] = dose: 50.0 mg/kg/injection, schedule: Q01DX009 (ip), vehicle: saline with Tween-80

## COc1ccc(-c2c3c(cc4cc5c(cc24)OCO5)C(=O)OC3)cc1OC
dose: 0.25 mg/kg/injection, schedule: Q01DX009 (ip), vehicle: saline + alcohol
  T/C: 95 % of control
dose: 0.5 mg/kg/injection, schedule: Q01DX009 (ip), vehicle: saline + alcohol
  T/C: 88 % of control
dose: 1.0 mg/kg/injection, schedule: Q01DX009 (ip), vehicle: saline + alcohol
  T/C: 95 % of control
dose: 1.5 mg/kg/injection, schedule: Q01DX009 (ip), vehicle: saline + alcohol
  T/C: 104 % of control
dose: 2.0 mg/kg/injection, schedule: Q01DX009 (ip), vehicle: saline + alcohol
  T/C: 88 % of control
dose: 3.0 mg/kg/injection, schedule: Q01DX009 (ip), vehicle: saline + alcohol
  T/C: 93 % of control
dose: 4.0 mg/kg/injection, schedule: Q01DX009 (ip), vehicle: saline + alcohol
  T/C: 95 % of control
dose: 6.0 mg/kg/injection, schedule: Q01DX009 (ip), vehicle: saline + alcohol
  T/C: 111 % of control
dose: 8.0 mg/kg/injection, schedule: Q01DX009 (ip), vehicle: saline + alcohol
  T/C: 104 % of control
dose: 12.0 mg/kg/injection, schedule: Q01DX009 (ip), vehicle: saline + alcohol
  T/C: 101 % of control
dose: 24.0 mg/kg/injection, schedule: Q01DX009 (ip), vehicle: saline + alcohol
  T/C: 93 % of control
dose: 25.0 mg/kg/injection, schedule: Q01DX009 (ip), vehicle: saline + alcohol
  T/C: 94 % of control
dose: 50.0 mg/kg/injection, schedule: Q01DX009 (ip), vehicle: saline + alcohol
  T/C: 94 % of control
dose: 100.0 mg/kg/injection, schedule: Q01DX009 (ip), vehicle: saline + alcohol
  T/C: 97 % of control
dose: 200.0 mg/kg/injection, schedule: Q01DX009 (ip), vehicle: saline + alcohol
  T/C: 86 % of control

## C[n+]1c(/C=C\C=C\N2CCCCC2)sc2ccccc21
dose: 0.16 mg/kg/injection, schedule: Q01DX009 (ip), vehicle: Klucel (hydroxypropylcellulose) (HPC)
  T/C: 114 % of control
dose: 0.31 mg/kg/injection, schedule: Q01DX009 (ip), vehicle: Klucel (hydroxypropylcellulose) (HPC)
  T/C: 108 % of control
dose: 0.63 mg/kg/injection, schedule: Q01DX009 (ip), vehicle: Klucel (hydroxypropylcellulose) (HPC)
  T/C: 119 % of control

## C=CCN(CC=C)P(=O)(N1CC1)N1CC1C (stereo not given)
dose: 0.25 mg/kg/injection, schedule: Q04DX003 (ip), vehicle: saline
  T/C: 120 % of control
dose: 0.31 mg/kg/injection, schedule: Q01DX009 (ip), vehicle: saline
  T/C: 100 % of control
dose: 0.5 mg/kg/injection, schedule: Q01DX009 (ip), vehicle: saline
  T/C: 156 % of control and 158 % of control
dose: 0.83 mg/kg/injection, schedule: Q01DX009 (ip), vehicle: saline
  T/C: 150 % of control and 166 % of control and 173 % of control
dose: 1.65 mg/kg/injection, schedule: Q04DX003 (ip), vehicle: saline
  T/C: 159 % of control
dose: 1.8 mg/kg/injection, schedule: Q01DX009 (ip), vehicle: saline
  T/C: 91 % of control
dose: 2.5 mg/kg/injection, schedule: Q04DX003 (ip), vehicle: saline
  T/C: 163 % of control and 190 % of control
dose: 3.75 mg/kg/injection, schedule: Q04DX003 (ip), vehicle: saline
  T/C: 163 % of control
dose: 5.0 mg/kg/injection, schedule: Q04DX003 (ip), vehicle: saline
  T/C: 90 % of control

## C#CC(C)(C)OCC(O)CCl (stereo not given)
dose: 50.0 mg/kg/injection, schedule: Q01DX009 (ip), vehicle: saline
  T/C: 95 % of control
[1]
  T/C: 100 % of control
[2]
  T/C: 91 % of control
[3]
  T/C: 91 % of control
dose: 200.0 mg/kg/injection, schedule: Q04DX003 (ip), vehicle: saline
  T/C: 100 % of control
dose: 400.0 mg/kg/injection, schedule: Q04DX003 (ip), vehicle: saline
  T/C: 112 % of control

## CC1(C)N=C(N)N=C(N)N1c1ccc(CCCCc2cccc(S(=O)(=O)F)c2)c(Cl)c1
dose: 1.0 mg/kg/injection, schedule: Q01DX009 (ip), vehicle: saline with Tween-80
  T/C: 119 % of control
dose: 1.32 mg/kg/injection, schedule: Q01DX009 (ip), vehicle: saline with Tween-80
  T/C: 150 % of control
dose: 2.0 mg/kg/injection, schedule: Q01DX009 (ip), vehicle: saline with Tween-80
  T/C: 150 % of control
dose: 3.0 mg/kg/injection, schedule: Q01DX009 (ip), vehicle: saline with Tween-80
  T/C: 154 % of control
dose: 4.0 mg/kg/injection, schedule: Q01DX009 (ip), vehicle: saline with Tween-80
  T/C: 161 % of control
dose: 8.0 mg/kg/injection, schedule: Q01DX009 (ip), vehicle: saline with Tween-80
  T/C: 161 % of control and 170 % of control
dose: 12.0 mg/kg/injection, schedule: Q01DX009 (ip), vehicle: saline with Tween-80
  T/C: 170 % of control
dose: 12.5 mg/kg/injection, schedule: Q04DX003 (ip), vehicle: saline with Tween-80
  T/C: 109 % of control
dose: 18.0 mg/kg/injection, schedule: Q01DX009 (ip), vehicle: saline with Tween-80
  T/C: 200 % of control

## CC(=O)[S][Pb]([c]1ccccc1)([c]1ccccc1)[c]1ccccc1
dose: 4.0 mg/kg/injection, schedule: Q01DX009 (ip), vehicle: Klucel (hydroxypropylcellulose) (HPC)
  T/C: 114 % of control
dose: 5.9 mg/kg/injection, schedule: Q01DX009 (ip), vehicle: Klucel (hydroxypropylcellulose) (HPC)
  T/C: 110 % of control
dose: 9.0 mg/kg/injection, schedule: Q01DX009 (ip), vehicle: Klucel (hydroxypropylcellulose) (HPC)
  T/C: 106 % of control

## CCCCCCCCCCCCCCCCCCNC(=O)Nc1ccc(CC)cc1
dose: 100.0 mg/kg/injection, schedule: Q04DX003 (ip), vehicle: saline with Tween-80
  T/C: 90 % of control
dose: 200.0 mg/kg/injection, schedule: Q04DX003 (ip), vehicle: saline with Tween-80
  T/C: 104 % of control
dose: 400.0 mg/kg/injection, schedule: Q04DX003 (ip), vehicle: saline with Tween-80
  T/C: 95 % of control

## CC(Cc1ccccc1)NC1CC2CCC1C2 (stereo not given)
dose: 6.25 mg/kg/injection, schedule: Q01DX009 (ip), vehicle: Klucel (hydroxypropylcellulose) (HPC)
  T/C: 104 % of control
dose: 12.5 mg/kg/injection, schedule: Q01DX009 (ip), vehicle: Klucel (hydroxypropylcellulose) (HPC)
  T/C: 104 % of control
dose: 25.0 mg/kg/injection, schedule: Q01DX009 (ip), vehicle: Klucel (hydroxypropylcellulose) (HPC)
  T/C: 113 % of control

## CN(C)c1ccc(/C=C\c2ccnc3ccccc23)cc1
dose: 1.5 mg/kg/injection, schedule: Q01DX010 (ip), vehicle: saline
  T/C: 100 % of control
dose: 3.0 mg/kg/injection, schedule: Q01DX010 (ip), vehicle: saline
  T/C: 95 % of control
dose: 6.0 mg/kg/injection, schedule: Q01DX010 (ip), vehicle: saline
  T/C: 100 % of control
dose: 12.0 mg/kg/injection, schedule: Q01DX010 (ip), vehicle: saline
  T/C: 109 % of control

## CCOC(=O)c1cnc(=O)[nH]c1N
[4]
  T/C: 99 % of control

## CCCC(C(O)c1ccc(OC)cc1)C(O)(C(F)(F)F)C(F)(F)F (stereo not given)
dose: 100.0 mg/kg/injection, schedule: Q04DX003 (ip), vehicle: other
  T/C: 90 % of control
dose: 200.0 mg/kg/injection, schedule: Q04DX003 (ip), vehicle: other
  T/C: 105 % of control
dose: 400.0 mg/kg/injection, schedule: Q04DX003 (ip), vehicle: other
  T/C: 105 % of control

## CC(=O)OCC(=O)[C@@]1(O)CC[C@H]2[C@@H]3CCC4=CC(=O)C=C[C@]4(C)[C@H]3C(=O)C[C@@]21C
dose: 25.0 mg/kg/injection, schedule: Q01DX009 (ip), vehicle: saline with Tween-80
  T/C: 109 % of control
[4]
  T/C: 122 % of control
dose: 63.75 mg/kg/injection, schedule: Q01DX009 (ip), vehicle: Klucel (hydroxypropylcellulose) (HPC)
  T/C: 113 % of control
dose: 100.0 mg/kg/injection, schedule: Q01DX009 (ip), vehicle: saline with Tween-80
  T/C: 118 % of control
dose: 100.0 mg/kg/injection, schedule: Q04DX003 (ip), vehicle: Klucel (hydroxypropylcellulose) (HPC)
  T/C: 100 % of control
dose: 127.5 mg/kg/injection, schedule: Q01DX009 (ip), vehicle: Klucel (hydroxypropylcellulose) (HPC)
  T/C: 122 % of control
dose: 200.0 mg/kg/injection, schedule: Q04DX003 (ip), vehicle: Klucel (hydroxypropylcellulose) (HPC)
  T/C: 104 % of control
dose: 255.0 mg/kg/injection, schedule: Q01DX009 (ip), vehicle: Klucel (hydroxypropylcellulose) (HPC)
  T/C: 100 % of control
dose: 400.0 mg/kg/injection, schedule: Q04DX003 (ip), vehicle: Klucel (hydroxypropylcellulose) (HPC)
  T/C: 104 % of control

## O=P(CCCl)(OCCCl)N1CCCCC1 (stereo not given)
dose: 50.0 mg/kg/injection, schedule: Q04DX003 (ip), vehicle: saline
  T/C: 104 % of control
[1]
  T/C: 104 % of control
[2]
  T/C: 108 % of control
[3]
  T/C: 104 % of control
dose: 400.0 mg/kg/injection, schedule: Q01DX009 (ip), vehicle: saline
  T/C: 109 % of control

## CCNC(C)(C)C(SSSC(c1cccs1)C(C)(C)NCC)c1cccs1 (stereo not given)
dose: 100.0 mg/kg/injection, schedule: Q01DX001 (ip), vehicle: saline
  T/C: 104 % of control
dose: 200.0 mg/kg/injection, schedule: Q01DX001 (ip), vehicle: saline
  T/C: 118 % of control

Source: PubChem BioAssay AID328 (DTP/NCI, 2004)
